# pIC50, pKi: −log10 of the molar value. Several values for one entry are separate records, joined by “and”; a condition that tells them apart may be missing. Equal values may be shown once. Where a name gives a salt, the structure may show the parent alone.
# Assays:
# CHK1 = biological target: T1, CHK1 (Homo sapiens, UniProt O14757); test: CHK1 high-throughput screening; assay type: biochemical; conditions: for % inhibition @ 20 μM: Table 4, repeated entries per example; for inhibition at 20 µM: read-out: % inhibition @ 20 μM, Table 4, repeated entries per example
# T1 sequence (O14757 1-476): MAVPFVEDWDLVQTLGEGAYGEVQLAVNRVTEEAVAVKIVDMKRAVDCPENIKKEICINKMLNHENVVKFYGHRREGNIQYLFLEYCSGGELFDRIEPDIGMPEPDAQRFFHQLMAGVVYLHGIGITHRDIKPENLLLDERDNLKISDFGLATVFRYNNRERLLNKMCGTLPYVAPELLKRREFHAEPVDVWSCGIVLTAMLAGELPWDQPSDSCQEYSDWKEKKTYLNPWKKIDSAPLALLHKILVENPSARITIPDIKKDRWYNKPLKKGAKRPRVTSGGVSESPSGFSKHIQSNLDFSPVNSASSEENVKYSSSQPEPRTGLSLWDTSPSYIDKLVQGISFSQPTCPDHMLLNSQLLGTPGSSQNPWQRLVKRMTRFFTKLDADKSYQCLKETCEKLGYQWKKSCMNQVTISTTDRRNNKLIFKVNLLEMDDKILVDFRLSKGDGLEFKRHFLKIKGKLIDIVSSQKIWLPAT
# FAKcd409 = biological target: T2, FAKcd409 (Homo sapiens, UniProt Q05397, P410T); test: FAK HTS assay; assay type: biochemical; conditions: 10 uM compound, HTS Delphia assay; for % inhibition of FAK: 10 µM
# T2 construct: comprises residues methionine 409 to glutamate 689; made in house; host or cells: baculovirus vector expression system
# T2 sequence (Q05397 409-689 P410T): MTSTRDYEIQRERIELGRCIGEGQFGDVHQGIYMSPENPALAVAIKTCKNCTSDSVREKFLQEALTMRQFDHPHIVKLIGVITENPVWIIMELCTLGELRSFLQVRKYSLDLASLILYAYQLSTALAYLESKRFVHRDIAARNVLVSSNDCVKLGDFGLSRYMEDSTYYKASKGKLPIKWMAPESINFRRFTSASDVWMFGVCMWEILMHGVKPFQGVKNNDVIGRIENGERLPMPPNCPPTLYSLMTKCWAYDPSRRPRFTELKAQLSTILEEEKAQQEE
# [1] = biological target: T3, phosphorylated VEGF-R2Δ50 (Homo sapiens, UniProt P35968, DEL940-989/E990V); test: VEGF-R2 ELISA assay; assay type: biochemical; conditions: Table 2; * determined with ELISA assay; read-out: FLVK-P Ki
# T3 construct: VEGF-R2Δ50 contains residues 806-939 and 990-1171; made in house; host or cells: baculovirus/insect cells
# T3 sequence (P35968 with tags, fused parts or gaps DEL940-989/E990V limits assumed): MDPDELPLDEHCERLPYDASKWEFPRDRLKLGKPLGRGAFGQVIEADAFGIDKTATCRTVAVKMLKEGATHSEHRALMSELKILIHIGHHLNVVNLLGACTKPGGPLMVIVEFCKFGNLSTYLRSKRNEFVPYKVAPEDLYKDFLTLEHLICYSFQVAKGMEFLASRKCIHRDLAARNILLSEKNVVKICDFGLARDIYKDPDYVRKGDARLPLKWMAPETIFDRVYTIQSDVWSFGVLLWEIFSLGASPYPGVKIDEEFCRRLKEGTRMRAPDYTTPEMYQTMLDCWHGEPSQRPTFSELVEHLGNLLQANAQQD
# Procedure, shortened: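 Pre-autophosphorylated human VEGF-R2Δ50 (residues 806-939/990-1171, E990V; baculovirus) at 0.8 nM was run with 2 μM biotin-gastrin(1-17), 20 μM ATP, 26 mM MgCl2, 2 mM MnCl2, pH 7.5 Hepes. Phosphopeptide was captured on streptavidin and detected by anti-pTyr-HRP/ABTS at 405 nm; Ki came from activity at varying compound concentrations.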
# [2] = biological target: T4, phosphorylated VEGF-R2Δ50 (FLVK-P) (Homo sapiens, UniProt P35968, DEL940-989/E990V); test: VEGF-R2 coupled spectrophotometric (FLVK-P) assay; assay type: biochemical; conditions: for pKi: spectrophotometric assay; for inhibition at 0.05 µM: Table 3, at 50 nM
# T4 construct: VEGF-R2Δ50 contains residues 806-939 and 990-1171; made in house; host or cells: baculovirus/insect cells
# T4 sequence (P35968 with tags, fused parts or gaps DEL940-989/E990V limits assumed): as above
# Procedure, shortened: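 Baculovirus-expressed human VEGF-R2Δ50 (residues 806-939/990-1171, E990V) was autophosphorylated with 3 mM ATP, 40 mM MgCl2 for 2 h at 4° C. ADP formation was coupled via PK/LDH to NADH oxidation, read at 340 nm, with 5.1 mM poly(E4Y1), 1 mM ATP, 25 mM MgCl2, Hepes pH 7.5. Ki came from activity across compound concentrations.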
# [3] = tested on: lung cancer cells (line MV522); test: Cancer cell proliferation (MV522) assay; assay type: cell-based
# [4] = tested on: human umbilical vein endothelial cells (HUVEC); test: HUVEC proliferation assay; assay type: cell-based; conditions: Homo sapiens, HUVEC
# Procedure, shortened: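 Readout was MTT dye reduction (A595) after 72 h of stimulation with VEGF at 6 ng/ml final. Compound, in 0.1% DMSO final, was added 1 h before VEGF to HUVEC starved 24 h in 1% FBS. % inhibition was scaled between VEGF-alone and unstimulated wells; IC50 was fitted from triplicate dose curves.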
# CDK2/Cyclin A complex = CDK2/Cyclin A complex (Homo sapiens, UniProt P24941); test: CDK2/Cyclin A assay; assay type: biochemical; conditions: Table 2
# Procedure, shortened: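 Radiometric assay: 150 nM CDK2/cyclin A (insect-cell CDK2, truncated cyclin A) phosphorylates His-tagged Rb fragment (residues 386-928) with 25 μM ATP plus [32P]ATP, pH 7.4 HEPES, 2% DMSO, 30 °C for 20 min. Filter-captured product counted by phosphorimager; apparent Ki from competitive or tight-binding inhibition fits.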
# CDK4/Cyclin D3 complex = biological target: T5, CDK4/Cyclin D3 complex (Homo sapiens, UniProt P11802); test: CDK4/Cyclin D assay; assay type: biochemical; conditions: Table 2
# T5 construct: made in house; host or cells: insect cells co-infected with baculovirus vectors
# T5 sequence (P11802 whole entry): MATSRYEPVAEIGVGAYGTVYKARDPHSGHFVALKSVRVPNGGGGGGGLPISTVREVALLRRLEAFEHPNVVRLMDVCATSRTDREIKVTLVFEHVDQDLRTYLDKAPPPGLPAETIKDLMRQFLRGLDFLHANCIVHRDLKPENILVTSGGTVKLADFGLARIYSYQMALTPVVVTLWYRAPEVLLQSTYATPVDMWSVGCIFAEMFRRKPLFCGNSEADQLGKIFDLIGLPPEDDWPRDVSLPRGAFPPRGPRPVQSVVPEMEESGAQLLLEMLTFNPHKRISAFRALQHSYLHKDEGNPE
# T5 sequence (P30281 whole entry partner): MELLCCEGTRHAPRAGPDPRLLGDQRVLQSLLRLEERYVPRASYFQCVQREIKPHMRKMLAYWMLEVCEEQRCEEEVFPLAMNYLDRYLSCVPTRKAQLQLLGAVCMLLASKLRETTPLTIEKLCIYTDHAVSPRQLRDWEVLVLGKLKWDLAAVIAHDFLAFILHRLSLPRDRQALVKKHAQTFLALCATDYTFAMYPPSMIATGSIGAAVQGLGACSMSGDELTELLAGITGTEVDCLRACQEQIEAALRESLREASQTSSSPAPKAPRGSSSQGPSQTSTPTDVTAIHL
# Procedure, shortened: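 Insect-cell-expressed CDK4/cyclin D3 (50 nM) phosphorylating His-tagged Rb fragment (residues 386-928) with 25 μM [^32P]ATP in HEPES pH 7.4, MgCl2, 2% DMSO; 20 min at 30 °C, EDTA stop. Filter-captured 32P by phosphorimager; apparent Ki from competitive or tight-binding inhibition fits.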
# [5] = biological target: T6, unphosphorylated VEGF-R2Δ50 (FLVK) (Homo sapiens, UniProt P35968, DEL940-989/E990V); test: VEGF-R2 coupled spectrophotometric assay, unphosphorylated enzyme (FLVK); assay type: biochemical; conditions: Table 3; some entries 'Slow binder'
# T6 construct: VEGF-R2Δ50 contains residues 806-939 and 990-1171; made in house; host or cells: baculovirus/insect cells
# T6 sequence (P35968 with tags, fused parts or gaps DEL940-989/E990V limits assumed): as the sequence (P35968 with tags, fused parts or gaps DEL940-989/E990V limits assumed) above
# Procedure, shortened: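 Unphosphorylated VEGF-R2Δ50 (5 to 40 nM) with 20 mM poly(E4Y1), 3 mM ATP, 60 mM MgCl2, 2 mM MnCl2 in 200 mM Hepes pH 7.5. ADP production coupled via PK/LDH to NADH oxidation, read at 340 nm. Ki from activity at varying compound concentrations.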
# FGF-R1 = biological target: T7, FGF-R1 (Homo sapiens, UniProt P11362, C488A/C584S/L457V); test: FGF-R spectrophotometric assay; assay type: biochemical; conditions: Table 3; % inh @ 1 uM; read-out: FGF-P Ki (nM) (% inh @ 1 uM)
# T7 construct: starting from the endogenous methionine residue 456 to glutamate 766; made in house; host or cells: baculovirus vector expression system
# T7 sequence (P11362 456-766 L457V/C488A/C584S): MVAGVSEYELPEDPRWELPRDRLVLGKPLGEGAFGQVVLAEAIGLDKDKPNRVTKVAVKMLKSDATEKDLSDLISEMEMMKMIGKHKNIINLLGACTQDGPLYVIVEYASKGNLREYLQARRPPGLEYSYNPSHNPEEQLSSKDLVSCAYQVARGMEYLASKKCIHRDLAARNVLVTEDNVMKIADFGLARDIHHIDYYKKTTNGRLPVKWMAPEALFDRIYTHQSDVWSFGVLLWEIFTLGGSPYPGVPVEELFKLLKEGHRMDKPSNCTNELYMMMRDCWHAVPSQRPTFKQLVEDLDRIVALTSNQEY
# Procedure, shortened: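 Kinase domain (Met456–Glu766, baculovirus-expressed) used at 50 nM in a spectrophotometric assay run as for VEGF-R2. Substrates were 2 mM ATP and 15 mM poly(E4Y1).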
# LCK tyrosine kinase = biological target: T8, LCK tyrosine kinase (Homo sapiens, UniProt P06239, C224D/P223M); test: LCK spectrophotometric assay; assay type: biochemical; conditions: Table 3, read-out: LCK (% inh @ 1 uM)
# T8 construct: starting from amino acid residue 223 to the end of the protein at residue 509; made in house; host or cells: insect cells
# T8 sequence (P06239 223-509 P223M/C224D): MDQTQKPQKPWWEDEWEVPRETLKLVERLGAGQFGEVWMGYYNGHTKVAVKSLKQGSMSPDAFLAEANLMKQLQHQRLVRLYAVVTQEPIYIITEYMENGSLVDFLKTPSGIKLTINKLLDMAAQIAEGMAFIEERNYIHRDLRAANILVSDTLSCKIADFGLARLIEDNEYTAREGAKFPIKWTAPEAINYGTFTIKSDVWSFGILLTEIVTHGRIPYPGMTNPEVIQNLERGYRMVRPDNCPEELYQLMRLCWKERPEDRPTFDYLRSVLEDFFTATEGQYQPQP
compound,measurement,setting,value
"COc1cc(Nc2nc(N)c(-c3nc(-c4cccc(C(=O)Nc5ccc(C(C)C)c(C)c5)c4)cs3)s2)cc(OC)c1OC [A(34), 3-[4′-Amino-2′-(3,4,5-trimethoxy-phenylamino)-[2,5′]bithiazolyl-4-yl]-N-(4-isopropyl-3-methyl-phenyl)-benzamide]",% inhibition @ 20 μM,CHK1,4.6% and −3.4%
same,% inhibition of FAK,FAKcd409,−3% and −8% and −13%
"COc1cc(Nc2nc(N)c(-c3nc(-c4cccc(C(=O)Nc5ccc6nc(C)ccc6c5)c4)cs3)s2)cc(OC)c1OC [A(35), 3-[4′-Amino-2′-(3,4,5-trimethoxy-phenylamino)-[2,5′]bithiazolyl-4-yl]-N-(2-methyl-quinolin-6-yl)-benzamide]",pKi,[1],3.41
same,% inhibition of FAK,FAKcd409,−5% and −9% and −10%
"Cc1ccc(Nc2nc(N)c(-c3nc(-c4cccc(NC(=O)OCc5ccccc5)c4)cs3)s2)cc1 [A(36), [3-(4′-Amino-2′-p-tolylamino-[2,5′]bithiazolyl-4-yl)-phenyl]-carbamic acid benzyl ester]",FLVK-P % inhibition @ 0.05,"[2]; Table 1, at 0.05, concentration unit not printed (head nM)",36% @
same,inhibition at 20 µM,CHK1,2.8%
same,% inhibition of FAK,FAKcd409,−6% and −11% and −15%
"CCOC(=O)c1cccc(Nc2nc(N)c(-c3nc(-c4cccc(NC(=O)c5ccccc5)c4)cs3)s2)c1 [A(40), 3-[4′-Amino-4-(3-benzoylaminophenyl)-[2,5′]bithiazolyl-2′-ylamino]-benzoic acid ethyl ester]",inhibition at 20 µM,CHK1,1%
same,inhibition at 10 µM,FAKcd409,-6%
"Cc1cccc(Nc2nc(N)c(-c3nc(-c4cccc(NC(=O)c5ccccc5)c4)cs3)s2)c1 [A(44), [3-(4′-Amino-2′-m-tolylamino-[2,5′]bithiazolyl-4-yl)-phenyl]-benzamide]",inhibition at 20 µM,CHK1,-7.1%
same,% inhibition of FAK,FAKcd409,−15% and −5% and −10%
"Nc1nc(Nc2ccc3c(c2)OCCO3)sc1-c1nc(-c2cccc(NC(=O)c3ccccc3)c2)cs1 [A(45), N-{3-[4′-Amino-2′-(2,3-dihydro-benzo[1,4]dioxin-6-ylamino)-[2,5′]bithiazolyl-4-yl]-phenyl}-benzamide]",pKi,[2]; Table 1,8.01
same,inhibition at 20 µM,CHK1,-1%
same,% inhibition of FAK,FAKcd409,−13% and −4% and −6%
"CC(=O)Nc1cc(Nc2nc(N)c(-c3nc(-c4cccc(NC(=O)c5ccccc5)c4)cs3)s2)ccc1C [A(48), N-{3-[2′-(3-Acetylamino-4-methyl-phenylamino)-4′-amino-[2,5′]bithiazolyl-4-yl]-phenyl}-benzamide]",pKi,[2]; Table 1,8.51
same,inhibition at 20 µM,CHK1,1.3%
same,pIC50,"[3]; MV522, Table 1",< 5.00
same,pIC50,[4]; Table 1,6.46
same,% inhibition of FAK,FAKcd409,−2% and −8%
"Nc1nc(Nc2ccc3c(=O)[nH][nH]c(=O)c3c2)sc1-c1nc(-c2cccc(NC(=O)c3ccccc3)c2)cs1 [A(49), N-{3-[4′-Amino-2′-(1,4-dioxo-1,2,3,4-tetrahydro-phthalazin-6-ylamino)-[2,5′]bithiazolyl-4-yl]-phenyl}-benzamide]",inhibition at 20 µM,CHK1,14.1%
same,% inhibition of FAK,FAKcd409,−13% and −7% and −10%
"Nc1nc(Nc2cccnc2)sc1-c1nc(-c2cccc(NC(=O)c3ccccc3)c2)cs1 [A(53), 3-(4′-Amino-4-(3-benzamidophenyl)-[2,5′]bithiazolyl-2′-ylamino)-pyridine]",pKi,[2]; Table 1,7.62
same,inhibition at 20 µM,CHK1,4%
same,pIC50,"[3]; MV522, Table 1",< 5.00
same,pIC50,[4]; Table 1,6.43
same,% inhibition of FAK,FAKcd409,−10% and −8%
"Nc1nc(Nc2ccc(S(N)(=O)=O)cc2)sc1-c1nc(/C=C/C=C/c2ccccc2)cs1 [A(66), 4-[4′-Amino-4-(4-phenyl-buta-1,3-dienyl)-[2,5′]bithiazolyl-2′-ylamino]-benzenesulfonamide]",pKi,CDK2/Cyclin A complex,5.96
same,% inhibition @ 20 μM,CHK1,3.6% and 6.6% and 9.1%
same,melting point,,193 to 195 °C (dec.)
same,% inhibition of FAK,FAKcd409,−38% and −39%
"Nc1nc(Nc2ccc(S(N)(=O)=O)cc2)sc1-c1nc(C(=O)c2ccccc2)cs1 [A(67), 4-(4′-Amino-4-benzoyl-[2,5′]bithiazolyl-2′-ylamino)-benzenesulfonamide]",pKi,[2]; Table 2,6.96
same,pKi,CDK4/Cyclin D3 complex,6.17
same,pKi,CDK2/Cyclin A complex,7.82
same,melting point,,255 to 260 °C (dec.)
same,% inhibition of FAK,FAKcd409,−29% and −33%
"CCOC(=O)c1csc(-c2sc(Nc3ccc(S(N)(=O)=O)cc3)nc2N)n1 [A(68), Ethyl 4′-amino-2′-(4-sulfamoyl-phenylamino)-[2,5′]bithiazolyl-4-carboxylate]",pKi,CDK4/Cyclin D3 complex,5.35
same,pKi,CDK2/Cyclin A complex,6.89
same,inhibition at 10 µM,FAKcd409,-18%
"CCOC(=O)c1nc(-c2sc(Nc3ccc(S(N)(=O)=O)cc3)nc2N)sc1Cc1ccccc1 [A(73), 4′-Amino-5-benzyl-2′-(4-sulfamoyl-phenylamino)-[2,5′]bithiazolyl-4-carboxylic acid ethyl ester]",inhibition at 100 µM,CDK4/Cyclin D3 complex; at 100 (printed 100 or 100 μM),< 0%
same,CDK2 % inhibition @ 100,CDK2/Cyclin A complex; at 100 (printed 100 or 100 μM),36% @
same,% inhibition @ 20 μM,CHK1,14.4% and 7.3%
same,inhibition at 20 µM,CHK1,14.3%
same,% inhibition of FAK,FAKcd409,−23% and −30%
"COc1cc(Nc2nc(N)c(-c3nc(-c4cc(NC(=O)OC(C)(C)C)c(F)cc4Cl)no3)s2)cc(OC)c1OC [B(14), (5-{5-[4-Amino-2-(3,4,5-trimethoxy-phenylamino)-thiazol-5-yl]-[1,2,4]oxadiazol-3-yl}-4-chloro-2-fluoro-phenyl)-carbamic acid tert-butyl ester]",inhibition at 0.05 µM,[2],13%
same,pKi,[5],9.12
same,pIC50,"[3]; MV522, Table 3",< 5.00
same,pIC50,[4]; Table 3,7.96
same,inhibition at 1 µM,FGF-R1,46%
same,inhibition at 1 µM,LCK tyrosine kinase,10%
"COc1cccc(C(=O)Nc2cc(-c3noc(-c4sc(Nc5cc(OC)c(OC)c(OC)c5)nc4N)n3)c(Cl)cc2F)c1 [D(70), N-(5-{5-[4-Amino-2-(3,4,5-trimethoxy-phenylamino)-thiazol-5-yl]-[1,2,4]oxadiazol-3-yl}-4-chloro-2-fluoro-phenyl)-3-methoxy-benzamide TFA salt]",inhibition at 0.05 µM,[2],91%
same,pKi,[5],8.46
same,pIC50,"[3]; MV522, Table 3",< 5.00
same,pIC50,[4]; Table 3,8.27
same,inhibition at 1 µM,FGF-R1,59%
same,inhibition at 1 µM,LCK tyrosine kinase,61%

# Reference: US6620828B2, “Thiazole compounds and pharmaceutical compositions for inhibiting protein kinases and methods for their use” (Agouron Pharmaceuticals, Inc., priority 1999, dated 2003)
